Source: ChEMBL document CHEMBL5465560, “Selectivity Literature for EUbOPEN Chemogenomic Library” (2024)

Columns and labels:
[1] = target: T1, Tyrosine-protein kinase receptor TYRO3 (Homo sapiens) (UniProt Q06418); assay: Selectivity interaction (KinomeScan (DiscoverX)) EUB0000229b TYRO3; conditions: at 10 µM
T1 sequence (whole entry): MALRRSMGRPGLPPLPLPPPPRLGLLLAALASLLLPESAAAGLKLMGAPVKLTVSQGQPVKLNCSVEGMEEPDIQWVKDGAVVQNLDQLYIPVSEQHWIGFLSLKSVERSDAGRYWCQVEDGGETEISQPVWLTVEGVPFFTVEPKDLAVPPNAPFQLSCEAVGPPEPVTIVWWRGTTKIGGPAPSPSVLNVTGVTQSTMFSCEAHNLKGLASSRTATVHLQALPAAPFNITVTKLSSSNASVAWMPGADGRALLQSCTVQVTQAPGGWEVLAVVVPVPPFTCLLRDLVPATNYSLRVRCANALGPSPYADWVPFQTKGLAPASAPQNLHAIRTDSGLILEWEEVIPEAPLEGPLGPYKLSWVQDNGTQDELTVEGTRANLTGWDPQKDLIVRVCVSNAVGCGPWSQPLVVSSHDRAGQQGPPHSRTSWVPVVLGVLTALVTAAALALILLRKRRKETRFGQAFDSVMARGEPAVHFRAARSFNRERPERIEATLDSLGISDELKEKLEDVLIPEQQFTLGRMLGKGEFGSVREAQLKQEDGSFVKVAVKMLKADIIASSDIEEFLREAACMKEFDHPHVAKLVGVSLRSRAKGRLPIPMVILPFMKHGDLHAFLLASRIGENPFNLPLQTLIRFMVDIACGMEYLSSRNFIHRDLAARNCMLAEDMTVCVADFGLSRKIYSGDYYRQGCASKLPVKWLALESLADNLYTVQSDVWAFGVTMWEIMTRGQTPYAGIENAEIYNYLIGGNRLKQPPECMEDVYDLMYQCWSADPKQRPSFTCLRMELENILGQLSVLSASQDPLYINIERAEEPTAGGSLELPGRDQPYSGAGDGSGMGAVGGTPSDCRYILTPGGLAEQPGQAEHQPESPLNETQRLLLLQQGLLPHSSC

[2] = target: T2, N-lysine methyltransferase KMT5A (Homo sapiens) (UniProt Q9NQR1); assay: Selectivity interaction (Methyltransferase screen (radiometric assays, panel of 8 PRMTs, 21 protein lysine methyltransferases, 3 DNA methyltransferases, and one RNA methyltransferase)) EUB0000271b SETD8
T2 sequence (whole entry): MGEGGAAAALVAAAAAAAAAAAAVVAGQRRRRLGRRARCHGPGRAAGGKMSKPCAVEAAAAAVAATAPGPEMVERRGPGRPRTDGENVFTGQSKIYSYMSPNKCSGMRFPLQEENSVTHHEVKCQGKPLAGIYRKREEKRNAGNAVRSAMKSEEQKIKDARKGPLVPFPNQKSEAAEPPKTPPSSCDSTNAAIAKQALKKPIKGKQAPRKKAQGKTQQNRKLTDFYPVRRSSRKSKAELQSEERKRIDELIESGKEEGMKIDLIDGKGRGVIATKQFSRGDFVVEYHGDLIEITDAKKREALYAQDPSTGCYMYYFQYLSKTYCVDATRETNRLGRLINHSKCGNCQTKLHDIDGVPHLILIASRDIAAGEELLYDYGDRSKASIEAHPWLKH

[3] = target: Serine/threonine-protein kinase SIK3 (Homo sapiens) (UniProt Q9Y2K2); assay: Selectivity interaction (ProQinase) EUB0000171b SIK3
Chain of Serine/threonine-protein kinase SIK3 (Homo sapiens) (Q9Y2K2 whole entry, looked up): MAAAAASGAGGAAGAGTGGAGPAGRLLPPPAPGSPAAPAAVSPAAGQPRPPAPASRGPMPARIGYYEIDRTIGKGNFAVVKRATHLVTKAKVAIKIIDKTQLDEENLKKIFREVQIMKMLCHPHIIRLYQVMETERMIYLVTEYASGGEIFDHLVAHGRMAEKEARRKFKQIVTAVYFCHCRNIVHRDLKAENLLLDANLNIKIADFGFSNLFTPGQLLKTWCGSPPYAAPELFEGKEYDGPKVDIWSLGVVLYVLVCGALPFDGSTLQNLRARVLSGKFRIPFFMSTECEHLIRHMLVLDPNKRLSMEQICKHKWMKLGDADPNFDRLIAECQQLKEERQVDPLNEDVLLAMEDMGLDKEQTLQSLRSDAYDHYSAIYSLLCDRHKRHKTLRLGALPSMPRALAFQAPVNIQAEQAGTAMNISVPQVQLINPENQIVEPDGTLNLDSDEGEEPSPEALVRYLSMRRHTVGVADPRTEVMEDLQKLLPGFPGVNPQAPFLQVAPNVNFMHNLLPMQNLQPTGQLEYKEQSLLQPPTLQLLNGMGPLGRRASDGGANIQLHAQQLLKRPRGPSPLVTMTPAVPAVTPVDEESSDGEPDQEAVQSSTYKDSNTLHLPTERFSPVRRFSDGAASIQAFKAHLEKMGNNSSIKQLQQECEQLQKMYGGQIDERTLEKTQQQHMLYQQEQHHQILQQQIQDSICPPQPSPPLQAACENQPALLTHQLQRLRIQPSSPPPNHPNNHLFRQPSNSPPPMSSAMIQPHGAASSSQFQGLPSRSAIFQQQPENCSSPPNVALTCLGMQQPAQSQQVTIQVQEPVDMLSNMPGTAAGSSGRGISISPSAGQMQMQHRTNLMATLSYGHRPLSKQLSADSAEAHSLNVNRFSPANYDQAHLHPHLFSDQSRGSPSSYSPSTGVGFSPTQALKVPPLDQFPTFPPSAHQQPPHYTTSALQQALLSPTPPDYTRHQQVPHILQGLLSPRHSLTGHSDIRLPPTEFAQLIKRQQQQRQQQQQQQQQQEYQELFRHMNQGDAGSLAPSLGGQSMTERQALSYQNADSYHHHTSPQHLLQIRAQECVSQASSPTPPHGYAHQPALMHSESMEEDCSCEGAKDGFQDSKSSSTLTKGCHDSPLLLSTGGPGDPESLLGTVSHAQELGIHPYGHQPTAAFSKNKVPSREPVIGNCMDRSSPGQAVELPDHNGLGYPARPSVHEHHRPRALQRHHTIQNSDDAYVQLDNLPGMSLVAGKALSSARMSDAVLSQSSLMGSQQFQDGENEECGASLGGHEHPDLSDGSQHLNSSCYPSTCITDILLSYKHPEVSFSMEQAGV

[4] = system: Epidermal growth factor receptor (Homo sapiens), P00533 [UNDEFINED MUTATION]; assay: Selectivity interaction (KinomeScan (DiscoverX)) EUB0001619a EGFR; conditions: at 1 µM
Chain of Epidermal growth factor receptor (Homo sapiens), P00533 [UNDEFINED MUTATION] (P00533 whole entry, looked up, change not shown): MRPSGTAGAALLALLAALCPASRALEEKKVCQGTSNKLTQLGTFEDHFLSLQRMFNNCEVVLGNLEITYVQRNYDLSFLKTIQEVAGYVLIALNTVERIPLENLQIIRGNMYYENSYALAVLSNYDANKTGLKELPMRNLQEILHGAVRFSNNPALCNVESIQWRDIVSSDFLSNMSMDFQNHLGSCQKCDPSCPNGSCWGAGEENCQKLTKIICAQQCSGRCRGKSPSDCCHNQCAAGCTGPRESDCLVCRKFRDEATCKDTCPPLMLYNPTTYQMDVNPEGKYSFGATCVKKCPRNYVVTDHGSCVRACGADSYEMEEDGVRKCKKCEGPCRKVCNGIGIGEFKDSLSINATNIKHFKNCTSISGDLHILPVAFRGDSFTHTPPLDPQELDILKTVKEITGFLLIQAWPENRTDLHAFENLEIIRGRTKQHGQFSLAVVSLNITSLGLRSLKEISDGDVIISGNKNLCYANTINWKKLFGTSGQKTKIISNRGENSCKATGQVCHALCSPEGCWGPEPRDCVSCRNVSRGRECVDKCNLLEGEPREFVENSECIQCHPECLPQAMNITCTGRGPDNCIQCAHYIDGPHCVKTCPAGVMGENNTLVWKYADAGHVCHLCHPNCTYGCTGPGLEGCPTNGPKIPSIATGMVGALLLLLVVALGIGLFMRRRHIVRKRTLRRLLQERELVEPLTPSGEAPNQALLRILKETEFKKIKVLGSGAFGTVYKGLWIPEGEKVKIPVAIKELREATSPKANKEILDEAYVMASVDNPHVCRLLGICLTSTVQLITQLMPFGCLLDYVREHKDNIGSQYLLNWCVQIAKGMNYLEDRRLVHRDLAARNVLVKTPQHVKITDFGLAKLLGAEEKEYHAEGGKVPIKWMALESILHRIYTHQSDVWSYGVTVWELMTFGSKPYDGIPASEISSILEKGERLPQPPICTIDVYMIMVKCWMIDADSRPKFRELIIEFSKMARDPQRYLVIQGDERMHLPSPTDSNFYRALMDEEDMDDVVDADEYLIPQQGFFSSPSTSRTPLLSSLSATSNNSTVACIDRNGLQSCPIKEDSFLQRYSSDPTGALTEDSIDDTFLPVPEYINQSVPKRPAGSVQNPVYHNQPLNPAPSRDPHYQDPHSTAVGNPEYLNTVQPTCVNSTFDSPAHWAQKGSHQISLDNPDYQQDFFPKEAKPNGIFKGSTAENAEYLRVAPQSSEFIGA

[5] = target: T3, Dual specificity tyrosine-phosphorylation-regulated kinase 4 (Homo sapiens) (UniProt Q9NR20); assay: Selectivity interaction (Kinase panel (Invitrogen)) EUB0000639a DYRK4; conditions: at 200 nM
T3 sequence (whole entry): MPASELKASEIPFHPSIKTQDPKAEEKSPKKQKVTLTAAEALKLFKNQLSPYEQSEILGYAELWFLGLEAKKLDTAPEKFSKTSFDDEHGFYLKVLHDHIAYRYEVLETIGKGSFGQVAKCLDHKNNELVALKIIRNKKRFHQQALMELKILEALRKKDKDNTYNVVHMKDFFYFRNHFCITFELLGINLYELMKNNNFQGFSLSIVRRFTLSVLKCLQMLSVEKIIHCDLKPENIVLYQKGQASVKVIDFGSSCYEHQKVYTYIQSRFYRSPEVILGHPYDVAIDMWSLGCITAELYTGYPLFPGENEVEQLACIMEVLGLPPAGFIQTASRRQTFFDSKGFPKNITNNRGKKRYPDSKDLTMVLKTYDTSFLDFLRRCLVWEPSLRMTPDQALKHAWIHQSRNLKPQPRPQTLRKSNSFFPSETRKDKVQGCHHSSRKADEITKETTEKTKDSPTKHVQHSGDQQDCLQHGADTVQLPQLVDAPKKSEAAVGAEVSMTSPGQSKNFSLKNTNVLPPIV

[6] = target: T4, Serine/threonine-protein kinase Sgk3 (Homo sapiens) (UniProt Q96BR1); assay: Selectivity interaction (ActivX KiNativ screen (kinase selectivity in THP-1 cell lysates)) EUB0000639a SGK3; format: subcellular; conditions: lysate, at 0.04 µM
T4 sequence (whole entry): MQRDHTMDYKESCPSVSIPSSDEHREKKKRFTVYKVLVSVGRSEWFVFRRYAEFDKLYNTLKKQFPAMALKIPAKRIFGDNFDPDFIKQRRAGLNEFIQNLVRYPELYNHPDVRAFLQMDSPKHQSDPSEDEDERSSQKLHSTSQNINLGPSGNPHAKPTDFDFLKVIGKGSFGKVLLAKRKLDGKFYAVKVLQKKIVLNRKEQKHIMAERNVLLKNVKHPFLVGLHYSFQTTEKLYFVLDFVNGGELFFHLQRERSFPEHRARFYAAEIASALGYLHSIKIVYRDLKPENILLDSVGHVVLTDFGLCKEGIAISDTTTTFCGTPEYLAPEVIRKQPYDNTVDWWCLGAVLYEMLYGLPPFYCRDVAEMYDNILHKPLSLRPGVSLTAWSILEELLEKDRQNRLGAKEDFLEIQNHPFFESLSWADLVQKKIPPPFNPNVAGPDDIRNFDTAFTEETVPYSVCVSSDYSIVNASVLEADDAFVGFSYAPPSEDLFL

[7] = target: SRSF protein kinase 3 (Homo sapiens) (UniProt Q9UPE1); assay: Selectivity interaction (Kinase panel (Invitrogen)) EUB0000639a SRPK3; conditions: at 200 nM
Chain of SRSF protein kinase 3 (Homo sapiens) (Q9UPE1 whole entry): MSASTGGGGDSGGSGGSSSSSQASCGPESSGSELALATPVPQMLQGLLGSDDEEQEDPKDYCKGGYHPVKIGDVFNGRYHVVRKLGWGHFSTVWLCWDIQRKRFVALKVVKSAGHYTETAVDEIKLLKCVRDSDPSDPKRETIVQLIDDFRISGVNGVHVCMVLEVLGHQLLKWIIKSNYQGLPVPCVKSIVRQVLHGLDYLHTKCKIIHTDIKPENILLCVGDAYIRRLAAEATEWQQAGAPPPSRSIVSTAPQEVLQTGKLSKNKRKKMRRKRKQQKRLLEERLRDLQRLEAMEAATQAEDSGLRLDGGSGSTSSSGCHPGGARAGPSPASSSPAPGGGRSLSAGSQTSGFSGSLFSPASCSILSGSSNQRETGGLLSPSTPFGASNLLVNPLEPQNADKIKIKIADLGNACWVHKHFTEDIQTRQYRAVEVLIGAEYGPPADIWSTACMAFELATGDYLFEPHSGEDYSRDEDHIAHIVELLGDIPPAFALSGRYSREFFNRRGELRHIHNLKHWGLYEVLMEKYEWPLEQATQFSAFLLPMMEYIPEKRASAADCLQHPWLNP

[8] = system: Receptor-type tyrosine-protein kinase FLT3 (Homo sapiens), P36888 [UNDEFINED MUTATION]; conditions: at 10 µM
Chain of Receptor-type tyrosine-protein kinase FLT3 (Homo sapiens), P36888 [UNDEFINED MUTATION] (P36888 whole entry, looked up, change not shown): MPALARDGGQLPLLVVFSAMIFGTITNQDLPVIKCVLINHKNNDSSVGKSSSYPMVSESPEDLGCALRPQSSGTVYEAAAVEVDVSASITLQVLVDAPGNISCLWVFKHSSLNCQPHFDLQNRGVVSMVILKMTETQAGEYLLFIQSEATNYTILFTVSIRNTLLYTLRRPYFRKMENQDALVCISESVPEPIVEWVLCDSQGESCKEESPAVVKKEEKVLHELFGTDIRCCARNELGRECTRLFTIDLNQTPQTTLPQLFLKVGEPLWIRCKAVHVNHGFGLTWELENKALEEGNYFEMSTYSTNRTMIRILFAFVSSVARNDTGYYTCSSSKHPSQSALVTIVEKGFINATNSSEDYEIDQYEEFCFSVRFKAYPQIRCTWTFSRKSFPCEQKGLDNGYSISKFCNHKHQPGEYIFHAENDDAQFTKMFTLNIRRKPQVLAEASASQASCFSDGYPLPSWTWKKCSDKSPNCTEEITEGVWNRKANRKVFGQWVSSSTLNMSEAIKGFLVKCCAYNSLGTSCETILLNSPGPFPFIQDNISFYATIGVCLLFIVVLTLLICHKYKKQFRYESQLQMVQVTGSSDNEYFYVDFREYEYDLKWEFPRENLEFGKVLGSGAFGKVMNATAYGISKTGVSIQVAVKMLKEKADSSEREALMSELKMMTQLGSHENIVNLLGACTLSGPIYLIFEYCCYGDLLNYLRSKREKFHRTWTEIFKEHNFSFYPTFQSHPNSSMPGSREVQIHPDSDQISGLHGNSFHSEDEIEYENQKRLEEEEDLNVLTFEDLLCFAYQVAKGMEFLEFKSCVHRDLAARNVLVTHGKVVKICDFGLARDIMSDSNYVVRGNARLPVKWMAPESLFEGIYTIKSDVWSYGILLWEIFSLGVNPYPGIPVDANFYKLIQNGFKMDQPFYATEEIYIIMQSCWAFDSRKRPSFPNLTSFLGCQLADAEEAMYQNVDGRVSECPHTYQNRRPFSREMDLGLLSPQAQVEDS

[9] = target: Serine/threonine-protein kinase Nek7 (Homo sapiens) (UniProt Q8TDX7); assay: Selectivity interaction (Ambit KINOMEscan and KiNATiv profiling in Jurkat cells) EUB0000090b NEK7; format: cell-based; conditions: at 1 µM
Chain of Serine/threonine-protein kinase Nek7 (Homo sapiens) (Q8TDX7 whole entry, looked up): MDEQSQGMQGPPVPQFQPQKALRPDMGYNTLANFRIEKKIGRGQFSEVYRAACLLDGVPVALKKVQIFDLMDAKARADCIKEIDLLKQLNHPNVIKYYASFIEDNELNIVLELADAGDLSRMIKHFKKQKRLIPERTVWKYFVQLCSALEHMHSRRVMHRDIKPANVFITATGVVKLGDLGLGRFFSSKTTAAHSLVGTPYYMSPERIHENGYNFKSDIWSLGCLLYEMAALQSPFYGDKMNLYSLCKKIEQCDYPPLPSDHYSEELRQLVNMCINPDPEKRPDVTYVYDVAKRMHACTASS

## COc1cc(N(C)c2ccnc3ccc(C(F)(F)F)cc23)cc(OC)c1OC
[1]
  % binding: 80%

## Cc1cc(C)cc([C@@H]2c3cc(C)ccc3NC(=O)CN2C(=O)c2ccc(Br)s2)c1
[2]; at 1 µM
  % of activity: 101%
[2]; at 10 µM
  % of activity: 92%

## C=CC(=O)Nc1cccc(C(=O)Nc2ccc(Nc3cc(-c4[nH]c(SC)nc4C)ccn3)cc2)c1
[3]; at 1 µM
  % of control: 65%
[3]; at 5 µM
  % of control: 47%

## N#Cc1cccc(-c2c[nH]c3ncnc(N4CCOCC4)c23)c1
[4]
  % of control: 100%

## CC[C@@H]1[C@H](F)C(=O)N[C@@H]1COc1nccc2cc(C(N)=O)c(OC)cc12 [ZIMLOVISERTIB]
[5]
  % of inhibition: 5.52%
[6]
  % of inhibition: 3.1%
[7]
  % of inhibition: 8.65%

## CCN(CC)CCCCNc1ncc2cc(-c3cc(OC)cc(OC)c3)c(NC(=O)NC(C)(C)C)nc2n1
[8]
  % of control: 100%

## CN(C)C/C=C/C(=O)Nc1ccc(C(=O)N2CCCC(Nc3ncc(Cl)c(-c4c[nH]c5ccccc45)n3)C2)cc1 (stereo unspecified)
[9]
  % of control: 91%
